From ChEMBL document CHEMBL1201862, “PubChem BioAssay data set” (2004) come the findings set out here.

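48-hour exposure; five concentrations; linearly interpolated endpoints. GI50 marks 50% less growth.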 The source made the active and inactive calls. No stated cut-off is given here; in the data, active = GI50 up to about 1.1 µM and inactive = higher. Where only a bound is given, the exact number is not on record here.

Holding throughout (assay): DTP human tumour cell line panel, 48 h
In assay [1] the test system is ACHN.
The test system of assay [2] is RXF 393.
For assay [3], the system named is SN12C.
Assay [4] concerns IGROV-1.
Assay [5] has as its system SK-MEL-28.
The subject of assay [6] is OVCAR-4.
Assay [7] deals with MDA-N.
In assay [8] the test system is U-251.
Assay [9] deals with SW-620.
Assay [10] has as its system HCC 2998.
The test system of assay [11] is HOP-92.
Assay [12] deals with BT-549.
For assay [13], the system named is OVCAR-8.
Assay [14] relates to UACC-62.
In assay [15] the test system is M14.
Assay [16] deals with SK-MEL-2.
In assay [17] the test system is NCI-H226.
The subject of assay [18] is MOLT-4.
Assay [19] deals with T47D.

As a reminder, the GI50 is the concentration that inhibits growth by half. Turning to `COc1cc(OC)c2nc(C)c3c(c2c1)NCC3`, the GI50 in [1] is 4.88 µM (inactive); in assay [2], 4.48 µM (inactive); in assay [3], 4.48 µM (inactive); in assay [4], 9.75 µM (inactive); in assay [5], 15.2 µM (inactive); in [6], 3.63 µM (inactive). The GI50 in assay [7] is 8.09 µM (inactive); in assay [8] it was 9.35 µM (inactive); in assay [9] it was 4.42 µM (inactive); in assay [10] it was 7.83 µM (inactive); in assay [11], 13.3 µM (inactive); in [12] it was 14.4 µM (inactive). The GI50 in assay [13] was 4.51 µM (inactive); in assay [14], 9.16 µM (inactive); in assay [15], 11.6 µM (inactive); in assay [16] it was 9.42 µM (inactive); in assay [17] it was 3.47 µM (inactive).

For `[N-]=[N+]=CC(=O)OCC1SCCCS1`, the GI50 in assay [1] was 78.9 µM (inactive); in assay [18] it was > 100 µM (inactive); in [2], > 100 µM (inactive); in assay [3] it was > 100 µM (inactive); in [4] it was > 100 µM (inactive); in [5] it was > 100 µM (inactive). The GI50 in assay [6], in assay [7], in assay [8], in [9], in assay [10] and in [11] was > 100 µM (inactive) throughout. The GI50 in assay [12], in assay [14], in [16] and in assay [17] was > 100 µM (inactive) in each case.

Turning to `O=C1CCCC2=C1C(c1ccc3c(c1)OCO3)Nc1ccc3ccccc3c12` (stereo not drawn), the GI50 in assay [1] is 16 µM (inactive); in assay [2] it was > 100 µM (inactive); in assay [3], > 100 µM (inactive); in assay [4] it was > 100 µM (inactive); in assay [5], > 100 µM (inactive); in assay [7] it was 87.1 µM (inactive). Further, the GI50 in [8] was > 100 µM (inactive); in assay [9] it was > 100 µM (inactive); in assay [10] it was > 100 µM (inactive); in assay [12] it was > 100 µM (inactive); in assay [13], 87.5 µM (inactive); in assay [14], > 100 µM (inactive). Moreover, the GI50 in assay [15], in assay [16] and in assay [17] was > 100 µM (inactive) throughout.

As for `CC1CNC(NS(=O)(=O)c2cc(C(=O)Nc3ccc(Cl)cc3)c(Cl)cc2S)=NN1` (stereo not drawn), the GI50 in assay [1] is 40 µM (inactive); in [18] it was 52.8 µM (inactive); in assay [3] it was 38.8 µM (inactive); in assay [4], 36.1 µM (inactive); in [5] it was 22.3 µM (inactive); in [6], 28.6 µM (inactive). The GI50 in assay [7] is 27.3 µM (inactive); in assay [8], 37.2 µM (inactive); in [9], 34.1 µM (inactive); in [10], 19.1 µM (inactive); in [12], 53.7 µM (inactive); in [13] it was 25.4 µM (inactive). Moreover, the GI50 in assay [14] was 29.2 µM (inactive); in assay [15] it was 21.7 µM (inactive); in [16], 28.9 µM (inactive); in [17] it was 27.5 µM (inactive).

For `COc1cc(C2CC(C)(N3CCOCC3)Oc3cc4c(cc32)OCO4)cc(OC)c1OC` (stereo not drawn), the GI50 in [1] was 0.243 µM (active); in [18], 0.136 µM (active); in assay [3], 0.189 µM (active); in assay [4] it was 0.222 µM (active); in assay [6], 0.275 µM (active); in [7], 0.0452 µM (active). In addition, the GI50 in assay [8] was 0.0577 µM (active); in assay [9] it was 0.136 µM (active); in assay [10], 0.427 µM (active); in assay [11], 2.67 µM (inactive); in assay [12], > 100 µM (inactive); in assay [13], 0.531 µM (active). In addition, the results for the GI50 in assay [14], in assay [15] and in assay [17] were 0.139 µM (active), 0.421 µM (active) and 5.35 µM (inactive), respectively.

As to `Nc1nc(N)nc(-c2cnccn2)n1`, the GI50 in assay [1], in assay [18], in [2], in assay [3], in assay [4] and in [5] was > 100 µM (inactive) in each case. The GI50 in assay [19], in [8], in assay [9], in assay [10], in assay [11] and in [12] was > 100 µM (inactive) each time. Moreover, the GI50 in assay [13], in assay [14], in assay [15], in [16] and in assay [17] was > 100 µM (inactive) throughout.

With `COc1cc2nc(-c3cccs3)nc(N3C(c4ccc(O)cc4)=NNC(=O)c4ccccc43)c2cc1OC`, the GI50 in [1] is 23.7 µM (inactive); in assay [2], 19.8 µM (inactive); in assay [3], 24.2 µM (inactive); in assay [4], 32.7 µM (inactive); in assay [5] it was 25.4 µM (inactive); in assay [6] it was 28.8 µM (inactive). Further, the GI50 was 29.2 µM (inactive) in assay [19]; 27.8 µM (inactive) in [8]; 30.4 µM (inactive) in [9]; 18.6 µM (inactive) in [10]; 21 µM (inactive) in assay [12]; 36.1 µM (inactive) in [13]. Also, the GI50 in assay [14] was 20.5 µM (inactive); in assay [15], 29.5 µM (inactive); in assay [16], 26.9 µM (inactive); in assay [17], 23.3 µM (inactive).

As to `Clc1ccc(-c2nc3ccc4ccccc4c3c3c2CCCC3)cc1`, the GI50 in [18] was > 100 µM (inactive); in assay [2] it was > 100 µM (inactive); in [4], > 100 µM (inactive); in [5], > 100 µM (inactive); in assay [7] it was > 100 µM (inactive); in assay [8], 94.4 µM (inactive). Also, the GI50 in assay [9], in [10], in [12], in [13], in assay [14] and in assay [15] was > 100 µM (inactive) each time. Moreover, the GI50 in [16] and in assay [17] was > 100 µM (inactive) each time.

As for `Cc1ccc(-n2cc(-c3ccc(Cl)cc3)c3c2N=CN2N=C(c4cccs4)NC32)cc1` (stereo not drawn), the GI50 in assay [1] was 5.07 µM (inactive); in assay [2], 12.4 µM (inactive); in assay [3] it was 10.1 µM (inactive); in [4] it was 14.2 µM (inactive); in assay [5], > 100 µM (inactive); in assay [6], 2.21 µM (inactive). Also, the GI50 in assay [7] is 26.8 µM (inactive); in assay [8] it was 4.81 µM (inactive); in [9], 14.4 µM (inactive); in assay [10], 57 µM (inactive); in assay [11] it was 7.64 µM (inactive); in assay [12] it was 20.1 µM (inactive). The GI50 was 6.46 µM (inactive) in assay [13]; 23.2 µM (inactive) in [14]; 18.7 µM (inactive) in [15]; 13.1 µM (inactive) in [16]; 19.3 µM (inactive) in assay [17].
